Data on 13 compounds can be found in patent US11999727B2 (Tango Therapeutics, Inc., priority 2020, dated 2024).

Assay [1] addresses T1, PRMT5 (Homo sapiens, UniProt O14744).
T1 construct: purchased Viva (custom protein)
Put plainly: PRMT5 biochemical IC50 assay with SAM as cofactor. The following applies: PRMT5, SAM as cofactor; read-out: SAM IC50.

The target in assay [2] is T1, PRMT5. Put plainly: PRMT5 biochemical IC50 assay with MTA as cofactor. The following applies: PRMT5, MTA as cofactor; read-out: MTA IC50.
The test system of assay [3] is HAP1 MTAP-intact cell line. Put plainly: SDMA in-cell western assay, HAP1 MTAP-intact. It counts as cell-based. The settings on record: Homo sapiens, HAP1, SDMA in-cell western, HAP1 MTAP-intact; read-out: MTAP HAP1 intact IC50. A digest of the protocol: (§1)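 Compounds were tested in HAP1 cells differing only in MTAP status (endogenous expression versus null). Cellular SDMA levels were then measured by in-cell western, giving an IC50 in each background.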

Assay [4] has as its target T1, PRMT5. Put plainly: PRMT5 biochemical IC50 assay with no cofactor. The settings on record: PRMT5, no cofactor; read-out: No Cofactor/rel IC50. An excerpt: Table 1 indicates IC50 values (μM) against PRMT5 for exemplary compounds in the presence of SAM as cofactor, with no cofactor, and with MTA as cofactor, respectively (columns 4-6). […] Ki values can be calculated from the IC50 values as described in the Examples section. As detailed in the Examples section, for the assay performed in the presence of SAM, IC50=Ki×1.5 (Ki=IC50/1.5).

Assay [5] has as its system HAP1 MTAP-deleted cell line. Put plainly: Viability assay, MTAP-deleted cell line. It counts as cell-based. The following applies: Homo sapiens, HAP1, viability assay, read-out: HAP1 MTAP deleted viability. An excerpt: Table 1 additionally indicates IC50 values in a viability assay for the MTAP-deleted cell line (column 10), indicating the effect of treatment with compound on cell survival.

Assay [6] deals with HAP1 MTAP-deleted cell line. Put plainly: SDMA in-cell western assay, HAP1 MTAP-deleted. The assay is classed as cell-based. The settings on record: for IC50: Homo sapiens, HAP1, SDMA in-cell western, HAP1 MTAP-deleted; for MTAP intact/deleted ratio: IC50 ratio HAP1 MTAP-intact / HAP1 MTAP-deleted, SDMA in-cell western. A digest of the protocol:
as §1

Where [7] appears, read: read-out: HAP1 MTAP deleted IC50.
Where [8] appears, read: read-out: HAP 1 MTAP deleted IC50.

Each structure is given as a SMILES string.

T1 sequence (O14744 whole entry): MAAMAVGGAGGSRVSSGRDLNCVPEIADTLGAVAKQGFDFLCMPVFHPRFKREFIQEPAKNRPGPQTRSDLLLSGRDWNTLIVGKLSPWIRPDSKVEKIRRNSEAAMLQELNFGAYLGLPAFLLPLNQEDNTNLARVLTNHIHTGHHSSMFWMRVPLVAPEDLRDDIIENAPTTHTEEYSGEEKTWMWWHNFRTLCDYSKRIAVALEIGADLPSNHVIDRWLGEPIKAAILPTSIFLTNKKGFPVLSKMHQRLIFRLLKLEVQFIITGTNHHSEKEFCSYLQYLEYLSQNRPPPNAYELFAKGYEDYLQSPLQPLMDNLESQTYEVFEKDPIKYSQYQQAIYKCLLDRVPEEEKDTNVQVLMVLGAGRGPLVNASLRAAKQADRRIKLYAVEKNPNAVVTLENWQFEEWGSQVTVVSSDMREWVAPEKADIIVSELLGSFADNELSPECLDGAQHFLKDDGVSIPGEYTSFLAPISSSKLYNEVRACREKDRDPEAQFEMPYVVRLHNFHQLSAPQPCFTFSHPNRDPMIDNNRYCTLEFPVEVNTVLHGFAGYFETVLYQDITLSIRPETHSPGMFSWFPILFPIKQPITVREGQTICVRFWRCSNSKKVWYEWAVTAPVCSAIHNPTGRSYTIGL
T1 sequence (Q9BQA1 whole entry partner): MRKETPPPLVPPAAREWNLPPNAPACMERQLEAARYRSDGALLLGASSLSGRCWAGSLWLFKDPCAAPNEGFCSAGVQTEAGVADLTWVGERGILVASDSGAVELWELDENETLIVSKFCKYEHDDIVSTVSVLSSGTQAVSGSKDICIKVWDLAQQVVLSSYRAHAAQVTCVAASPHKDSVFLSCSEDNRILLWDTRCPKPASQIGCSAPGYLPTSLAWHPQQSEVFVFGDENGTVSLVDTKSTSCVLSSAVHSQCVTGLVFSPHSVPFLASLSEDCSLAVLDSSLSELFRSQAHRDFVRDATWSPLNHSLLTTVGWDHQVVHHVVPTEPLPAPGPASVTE

As to `Cc1cc(NC(=O)C(=O)N2CC[C@@H](C(=O)C(C)C)C[C@H]2c2ccc3c(c2)CCC(=O)N3)cnc1N` (racemic) [Compound 853, N-(6-amino-5-methyl-3-pyridyl)-2-[(2S,4R)-4-(2-methylpropanoyl)-2-(2-oxo-3,4-dihydro-1H-quinolin-6-yl)-1-piperidyl]-2-oxo-acetamide], the IC50 is 50 to 500 nM at PRMT5 [1]; 50 to 500 nM at PRMT5 [2]; greater than 1000 nM in assay [3]; 50 to 500 nM at PRMT5 [4]; 1 to 10 µM in assay [5] (HAP1 MTAP-deleted); 100 to 1000 nM in assay [6] (setting [7]). For the same compound, the MTAP intact/deleted ratio result in assay [6] was “A (an IC50 ratio greater than or equal to 10 fold)”.
Regarding `Cc1cc(NC(=O)C(=O)N2CCC(C(=O)C(C)C)C[C@H]2c2ccc3c(c2)CCC(=O)N3)cnc1N` (mixture of isomers) [Compound 854, N-(6-Amino-5-methyl-3-pyridyl)-2-[(2S)-4-(2-methylpropanoyl)-2-(2-oxo-3,4-dihydro-1H-quinolin-6-yl)-1-piperidyl]-2-oxo-acetamide], the IC50 is 50 to 500 nM on PRMT5 [1]; 50 to 500 nM on PRMT5 [2]; greater than 1000 nM in assay [3]; 50 to 500 nM on PRMT5 [4]; 1 to 10 µM in assay [5] (HAP1 MTAP-deleted); 100 to 1000 nM in assay [6] (setting [7]). The MTAP intact/deleted ratio entry in assay [6] is “A (an IC50 ratio greater than or equal to 10 fold)”.
For the compound `Cc1cc(NC(=O)C(=O)N2C[C@H](C)CC[C@H]2c2ccc3sc(C(F)(F)F)nc3c2)cnc1N` (racemic) [Compound 861, rac-N-(6-Amino-5-methyl-3-pyridyl)-2-[(2R,5S)-5-methyl-2-[2-(trifluoromethyl)-1,3-benzothiazol-5-yl]-1-piperidyl]-2-oxo-acetamide], the IC50 at PRMT5 [1] is 50 to 500 nM; on PRMT5 [2], 50 to 500 nM; in assay [3], 100 to 1000 nM; on PRMT5 [4], 50 to 500 nM; in assay [5] (HAP1 MTAP-deleted), less than 1 µM; in assay [6] (setting [7]), less than 100 nM. In addition, in assay [6], the MTAP intact/deleted ratio result is listed as “A (an IC50 ratio greater than or equal to 10 fold)”.
As to `C[C@@H]1CC[C@@H](c2ccc(F)cc2)N(C(=O)C(=O)Nc2cnc(N)c(C(F)F)c2)C1` (racemic) [Compound 867, N-[6-amino-5-(difluoromethyl)-3-pyridyl]-2-[(2R,5S)-2-(4-fluorophenyl)-5-methyl-1-piperidyl]-2-oxo-acetamide], the IC50 was 50 to 500 nM on PRMT5 [1]; 50 to 500 nM at PRMT5 [2]; greater than 1000 nM in assay [3]; 50 to 500 nM on PRMT5 [4]; 1 to 10 µM in assay [5] (HAP1 MTAP-deleted); 100 to 1000 nM in assay [6] (setting [7]). The MTAP intact/deleted ratio result in assay [6] was “A (an IC50 ratio greater than or equal to 10 fold)”.
Consider `COc1ncc(NC(=O)C(=O)N2C[C@@H](C)CC[C@@H]2c2ccc3c(c2)OCCN3)cc1C(N)=O` (racemic) [Compound 869, 5-[[2-[(2R,5S)-2-(3,4-dihydro-2H-1,4-benzoxazin-7-yl)-5-methyl-1-piperidyl]-2-oxo-acetyl]amino]-2-methoxy-pyridine-3-carboxamide], for which the IC50 at PRMT5 [1] is 50 to 500 nM; on PRMT5 [2], 50 to 500 nM; in assay [3], greater than 1000 nM; at PRMT5 [4] it was 50 to 500 nM; in assay [5] (HAP1 MTAP-deleted), less than 1 µM; in assay [6] (setting [7]) it was less than 100 nM. Further, the MTAP intact/deleted ratio result in assay [6] is on record as “A (an IC50 ratio greater than or equal to 10 fold)”.
On to `CCc1cc(NC(=O)C(=O)N2C[C@@H](C)CC[C@@H]2c2ccc3c(c2)OCCN3)cnc1N` (racemic) [Compound 870, N-(6-amino-5-ethyl-3-pyridyl)-2-[(2R,5S)-2-(3,4-dihydro-2H-1,4-benzoxazin-7-yl)-5-methyl-1-piperidyl]-2-oxo-acetamide], for which the IC50 at PRMT5 [1] was 50 to 500 nM; at PRMT5 [2], 50 to 500 nM; in assay [3], greater than 1000 nM; on PRMT5 [4], 50 to 500 nM; in assay [5] (HAP1 MTAP-deleted) it was less than 1 µM; in assay [6] (setting [7]) it was less than 100 nM. In assay [6], the MTAP intact/deleted ratio result is recorded as “A (an IC50 ratio greater than or equal to 10 fold)”.
`Cc1cc(NC(=O)C(=O)N2C[C@@H](C)CC(F)(F)[C@@H]2c2ccc(F)cc2)cnc1N` (racemic) [Compound 871, N-(6-amino-5-methyl-3-pyridyl)-2-[(2S,5S)-3,3-difluoro-2-(4-fluorophenyl)-5-methyl-1-piperidyl]-2-oxo-acetamide]: the IC50 at PRMT5 [1] was 50 to 500 nM; on PRMT5 [2], less than 50 nM; in assay [3] it was 100 to 1000 nM; at PRMT5 [4], 50 to 500 nM; in assay [5] (HAP1 MTAP-deleted), 1 to 10 µM; in assay [6] (setting [7]), less than 100 nM. Moreover, the MTAP intact/deleted ratio entry in assay [6] is “B (an IC50 ratio greater than or equal to 3 fold but lower than 10 fold)”.
Regarding `C[C@@H]1CC[C@@H](c2ccc(F)cc2)N(C(=O)C(=O)Nc2cnc(N)c(C(F)(F)F)c2)C1` (racemic) [Compound 872, N-[6-Amino-5-(trifluoromethyl)-3-pyridyl]-2-[(2S,5R)-2-(4-fluorophenyl)-5-methyl-1-piperidyl]-2-oxo-acetamide], the IC50 at PRMT5 [1] was greater than 500 nM; on PRMT5 [2], 50 to 500 nM; in assay [3], greater than 1000 nM; on PRMT5 [4], 50 to 500 nM; in assay [5] (HAP1 MTAP-deleted), 1 to 10 µM; in assay [6] (setting [7]), 100 to 1000 nM. The MTAP intact/deleted ratio result in assay [6] is “A (an IC50 ratio greater than or equal to 10 fold)”.
`C[C@@H]1C[C@H](F)[C@@H](c2ccc(F)cc2)N(C(=O)C(=O)Nc2cncc(C(N)=O)c2)C1` (racemic) [Compound 879, 5-[[2-[(2R,3S,5R)-3-fluoro-2-(4-fluorophenyl)-5-methyl-1-piperidyl]-2-oxo-acetyl]amino]pyridine-3-carboxamide]: the IC50 at PRMT5 [1] was 50 to 500 nM; on PRMT5 [2], less than 50 nM; in assay [3] it was greater than 1000 nM; at PRMT5 [4], 50 to 500 nM; in assay [5] (HAP1 MTAP-deleted), 1 to 10 µM; in assay [6] (setting [7]), 100 to 1000 nM. Besides, in assay [6], the MTAP intact/deleted ratio entry is on record as “A (an IC50 ratio greater than or equal to 10 fold)”.
In the case of `Cc1ccc([C@@H]2CC[C@H](C)CN2C(=O)C(=O)Nc2cncc(C(N)=O)c2)nc1` (racemic) [Compound 880, 5-[[2-[(2R,5R)-5-Methyl-2-(5-methyl-2-pyridyl)-1-piperidyl]-2-oxo-acetyl]amino]pyridine-3-carboxamide], the IC50 is greater than 500 nM at PRMT5 [1]; 50 to 500 nM on PRMT5 [2]; greater than 1000 nM in assay [3]; greater than 500 nM on PRMT5 [4]; greater than 10 µM in assay [5] (HAP1 MTAP-deleted); 100 to 1000 nM in assay [6] (setting [7]). Besides, in assay [6], the MTAP intact/deleted ratio entry was “A (an IC50 ratio greater than or equal to 10 fold)”.
In the case of `COc1ncc(NC(=O)C(=O)N2C[C@@H](C)CC[C@H]2c2ccc(C)cn2)cc1C(N)=O` (racemic) [Compound 886, 2-Methoxy-5-[[2-[(2R,5R)-5-methyl-2-(5-methyl-2-pyridyl)-1-piperidyl]-2-oxo-acetyl]amino]pyridine-3-carboxamide], the IC50 was greater than 500 nM on PRMT5 [1]; 50 to 500 nM at PRMT5 [2]; greater than 1000 nM in assay [3]; greater than 500 nM at PRMT5 [4]; greater than 10 µM in assay [5] (MTAP-deleted cell line); greater than 1000 nM in assay [6] (setting [8]). Further, in assay [6], the MTAP intact/deleted ratio entry is on record as “B (an IC50 ratio greater than or equal to 3 fold but lower than 10 fold)”.
In the case of `C[C@@H]1CC[C@@H](c2cnc3c(c2)CCC(=O)N3)N(C(=O)C(=O)Nc2cncc(C(N)=O)c2)C1` (racemic) [Compound 888, rac-5-[[2-[(2S,5R)-5-Methyl-2-(7-oxo-6,8-dihydro-5H-1,8-naphthyridin-3-yl)-1-piperidyl]-2-oxo-acetyl]amino]pyridine-3-carboxamide], the IC50 at PRMT5 [1] is 50 to 500 nM; at PRMT5 [2] it was 50 to 500 nM; in assay [3], greater than 1000 nM; at PRMT5 [4], 50 to 500 nM; in assay [5] (MTAP-deleted cell line), greater than 10 µM; in assay [6] (setting [8]), greater than 1000 nM. The MTAP intact/deleted ratio result in assay [6] was “C (an IC50 ratio of less than 3 fold)”.
On to `C[C@@H]1CC[C@@H](c2ccc(F)cc2)N(C(=O)C(=O)Nc2cnc(OC(F)F)c(C(N)=O)c2)C1` (racemic) [Compound 889, 2-(difluoromethoxy)-5-(2-(2-(4-fluorophenyl)-5-methylpiperidin-1-yl)-2-oxoacetamido)nicotinamide], for which the IC50 at PRMT5 [1] is greater than 500 nM; at PRMT5 [2], 50 to 500 nM; in assay [3] it was greater than 1000 nM; on PRMT5 [4], 50 to 500 nM; in assay [5] (MTAP-deleted cell line), greater than 10 µM; in assay [6] (setting [8]) it was greater than 1000 nM. In addition, the MTAP intact/deleted ratio entry in assay [6] is reported as “B (an IC50 ratio greater than or equal to 3 fold but lower than 10 fold)”.
